# Source: patent publication US20020026053A1, “Novel 3-(substituted) -2- indolinones compounds and use thereof as inhibitors of protein kinase activity” (priority 1997, published 2002)
# Columns and labels:
# FLK-1 receptor = test: FLK-1 Assay (cellular/catalytic ELISA, VEGF-stimulated phosphotyrosine); assay type: cell-based; parameters: concentration or dose not given beside the values
# Procedure, shortened: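 Receptor phosphotyrosine ELISA: Flk-1-expressing NIH3T3 C7#3 cells, starved overnight in 0.1% FBS medium, received compound (1:200 final dilution, 0.5% DMSO) for 2 h at 37 °C, then VEGF. Anti-FLK-1-captured receptor was probed with anti-phosphotyrosine UB40 and peroxidase/ABTS read-out, relative to cells without compound.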
# PDGF-R = PDGF-R Assay (cellular ELISA, U1242 cells); assay type: cell-based; parameters: concentration or dose not given beside the values
# Procedure, shortened: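 Cellular ELISA for receptor autophosphorylation: after 2 hr test-compound treatment of serum-free U1242 cells at 37°C, ligand is added for 5–10 min, cells are lysed (HNTG) and receptor captured by specific antibody. Anti-phosphotyrosine plus secondary antibody with ABTS colour read at 410/630 nm, compared with compound-free control cells.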
Compound,Flk Kinase % Inhibition (P.110) (FLK-1 receptor) [%],PDGF Kinase % Inhibition (P.119) (PDGF-R) [%]
Cc1c(Br)cc(Br)c2c1C(=C1C(=O)N(C)c3ccccc31)C(=O)N2 [10731/H10],25.9,40.3
Cc1c(Br)cc(Br)c2c1C(=CC(c1cccs1)C(F)(F)F)C(=O)N2 (stereo not drawn) [10732/H02],9.1,6.8
COc1c(C(C)C)cc(C=C2C(=O)Nc3c(Br)cc(Br)c(C)c32)cc1C(C)C [10732/H03],8.4,−1.8
Cc1c(Br)cc(Br)c2c1C(=Cc1cc(C(C)C)c(Oc3ccccc3)c(C(C)C)c1)C(=O)N2 [10732/H04],4.9,14.4
COc1ccc(C=C2C(=O)Nc3c(Br)cc(Br)c(C)c32)cc1C(C)(C)C [10732/H05],12.8,−25.6
Cc1c(Br)cc(Br)c2c1C(=Cc1ccc(OCc3ccccc3)c(C(C)(C)C)c1)C(=O)N2 [10732/H06],22.6,−18.0
COc1c(Br)cc(C=C2C(=O)Nc3c(Br)cc(Br)c(C)c32)cc1C(C)(C)C [10732/H07],9.7,−22.0
Cc1c(Br)cc(Br)c2c1C(=Cc1cc(Br)c(OCc3ccccc3)c(C(C)(C)C)c1)C(=O)N2 [10732/H08],12.6,7.8
COc1c(Cl)cc(C=C2C(=O)Nc3c(Br)cc(Br)c(C)c32)cc1C(C)(C)C [10732/H09],5.4,−14.4
Cc1c(Br)cc(Br)c2c1C(=Cc1cc(Cl)c(OCc3ccccc3)c(C(C)(C)C)c1)C(=O)N2 [10732/H10],3.3,−21.0
COc1c(I)cc(C=C2C(=O)Nc3c(Br)cc(Br)c(C)c32)cc1C(C)(C)C [10732/H11],6.4,−16.0
Cc1c(Br)cc(Br)c2c1C(=Cc1cc(I)c(OCc3ccccc3)c(C(C)(C)C)c1)C(=O)N2 [10733/H02],−2.0,−5.6
COc1c([N+](=O)[O-])cc(C=C2C(=O)Nc3c(Br)cc(Br)c(C)c32)cc1C(C)(C)C [10733/H03],31.2,16.8
COc1c(C(C)(C)C)cc(C=C2C(=O)Nc3c(Br)cc(Br)c(C)c32)cc1C(C)(C)C [10733/H04],−8.5,−14.5
Cc1c(Br)cc(Br)c2c1C(=Cc1cc(C(C)(C)C)c(OCc3ccccc3)c(C(C)(C)C)c1)C(=O)N2 [10733/H05],17.7,−15.3
COc1c(C)cc(C=C2C(=O)Nc3c(Br)cc(Br)c(C)c32)cc1C [10733/H06],30.0,−12.9
Cc1cc(C=C2C(=O)Nc3c(Br)cc(Br)c(C)c32)cc(C)c1OCc1ccccc1 [10733/H07],7.6,−19.0
COc1cc(Br)cc(C=C2C(=O)Nc3c(Br)cc(Br)c(C)c32)c1O [10733/H08],4.8,−15.3
Cc1c(Br)cc(Br)c2c1C(=Cc1cc(Br)ccc1O)C(=O)N2 [10733/H09],44.8,5.0
Cc1c(Br)cc(Br)c2c1C(=Cc1cc([N+](=O)[O-])ccc1O)C(=O)N2 [10733/H10],12.6,10.7
COc1c(O)ccc(C=C2C(=O)Nc3c(Br)cc(Br)c(C)c32)c1[N+](=O)[O-] [10733/H11],29.1,−4.8
